Results published in article PMC10146281, “Pharmacokinetic and Pharmacodynamic Characteristics of Pelubiprofen Tromethamine vs. Pelubiprofen in Healthy Subjects” (Pharmaceutics, 2023).
Where two headings read alike, the source gives them in different places.

Columns and labels:
[1] = Study I safety and tolerability evaluation (adverse events); format: in vivo, human; details: for adverse events: Study I, 36 subjects evaluated, all mild
Protocol: In both Study I and II, the safety evaluation was performed on subjects administered with the investigational drug at least once. Any clinically significant findings in the interview, physical examination, vital signs, 12-lead electrocardiogram (ECG), the clinical laboratory test, etc., during the study period were collected as adverse events, which were subsequently evaluated for the incidence of serious adverse events, severity, causal relationship, etc. All relevant data were collected through monitoring by the investigator and voluntary reporting by the subjects. To collect additional data, interview and physical examination were performed where necessary. The investigator carried out the follow-up monitoring of the subjects with adverse events until the symptoms subsided and abnormal test values returned to a healthy baseline or until a satisfactory explanation for the observed change could be provided.

cyclooxygenase-2 (COX-2) = target: T1, cyclooxygenase-2 (COX-2) (Homo sapiens, UniProt P35354)
T1 sequence (P35354 18-604): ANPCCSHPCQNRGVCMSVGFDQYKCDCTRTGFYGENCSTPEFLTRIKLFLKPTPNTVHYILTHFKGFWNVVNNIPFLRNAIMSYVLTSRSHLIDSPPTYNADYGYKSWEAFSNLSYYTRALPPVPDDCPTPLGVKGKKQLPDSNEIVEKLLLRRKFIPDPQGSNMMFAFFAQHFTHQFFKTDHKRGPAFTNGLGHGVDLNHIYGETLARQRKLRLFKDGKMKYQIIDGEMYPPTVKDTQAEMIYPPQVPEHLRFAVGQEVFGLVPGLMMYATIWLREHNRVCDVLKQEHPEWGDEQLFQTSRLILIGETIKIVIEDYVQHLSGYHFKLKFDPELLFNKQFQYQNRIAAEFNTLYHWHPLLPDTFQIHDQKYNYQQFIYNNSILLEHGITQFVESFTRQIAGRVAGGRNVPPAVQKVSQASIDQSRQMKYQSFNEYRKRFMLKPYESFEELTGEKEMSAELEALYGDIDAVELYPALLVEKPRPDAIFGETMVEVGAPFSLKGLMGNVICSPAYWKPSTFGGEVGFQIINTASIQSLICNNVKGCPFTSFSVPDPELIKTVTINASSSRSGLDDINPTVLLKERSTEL
Protocol: To analyze the pharmacodynamic (PD) characteristics, approximately 1 mL of blood was sampled from the subjects in Study I, who had agreed to participate in the associated PD evaluation. The blood sampling was performed before administration (0 h) and at the following time points after administration: 0.083 h (5 min), 0.167 h (10 min), 0.33 h (20 min) and 0.5, 0.75, 1, 1.5, 2, 2.5, 3, 3.5, 4, 6, and 8 h. Therefore, for each subject, the blood sampling was performed 15 times in each period. While the PD analysis was performed on the same schedule as the PK analysis, only period 1 and 2 results were included in the analyses, and the post study visit was not performed.
The pharmacodynamic (PD) analysis was performed on the subjects in Study I, who had agreed to participate in the PD evaluation. For pharmacodynamic evaluation, the lipopolysaccharide (LPS) from E. coli O111:B4 (Sigma-Aldrich, Seoul, Republic of Korea) and the prostaglandin E2 (PGE2) enzyme-linked immunosorbent assay (ELISA) monoclonal kit (Cayman Chemical, MI, USA) were used. This study was conducted on healthy subjects, and LPS was added to sampled blood to induce inflammatory gene expression. The following procedures were applied for the PGE2 concentration analysis of subjects in Study I, who had agreed to participate in the pharmacodynamic evaluation.
Into 1.0 mL of sampled blood, 10 μL of lipopolysaccharide (LPS) was added. The mixture was centrifuged at […] and 4 °C for 10 min. By mixing the PGE2 ELISA standard and 1.0 mL of ELISA buffer, the standard reagents were produced at 1000, 500, 250, 125, 62.5, 31.3, 15.6, 7.8 pg/mL concentrations. Subsequently, to each well of the 96-well plate, 50 μL of the standard reagent, PGE2 acetylcholinesterase (AChE) tracer, and PGE2 monoclonal antibody were added. Each plate was then covered with a plastic film to be cultured at 4 °C for 18 h. Then, the wells were washed with the buffer solution 5 times, after which 200 μL of Ellman’s reagent was added to each well. The plate was covered with film once more to be placed on an orbital shaker for 60 min. The plate was read at a wavelength of 410 nm.
Pharmacodynamic (PD) was analyzed with data from the first and second periods. The plasma Prostaglandin E2 (PGE2) concentration in the first and second periods of Study I was measured using the enzyme-linked immunosorbent assay (ELISA) at the same time points as in the PK analysis: before investigational drug administration (0 h) and after drug administration at 0.083 h (5 min), 0.167 h (10 min), 0.33 h (20 min), and 0.5, 0.75, 1, 1.5, 2, 2.5, 3, 3.5, 4, 6, and 8 h. Therefore, for each subject, the measurements were taken 15 times in each period. While the PD analysis was performed on the same schedule as the PK analysis, only period 1 and 2 results were included in the analyses, and the post-study visit was not performed.
The PGE2 concentration and the cyclooxygenase-2 (COX-2) inhibitory effect derived from baseline (0 h time point before drug administration) values for each subject in Study I were visualized. The decreased level of calibrated PGE2 concentration performed in accordance with the concentration at baseline for each subject was tested as the extent of COX-2 inhibition, and the GMR and respective 90% CI of the COX-2 inhibition were applied in the PD analysis.
The pharmacodynamic (PD) data from the subjects in Study I, who had agreed to participate in the PD evaluation, were analyzed as follows to check for outliers. Grubbs’ test was performed when the normality of the data was satisfied; otherwise, a boxplot was drawn for log-transformed values, after which values outside the interquartile range (IQR) were checked for subsequent use in Grubb’s test. For significant outliers, the data excluding the values were analyzed once again.

[2] = Study I, all subjects N = 30, 25 mg pelubiprofen tromethamine vs. 30 mg pelubiprofen
[3] = Study I, without outliers N = 28, 25 mg pelubiprofen tromethamine vs. 30 mg pelubiprofen

Compound | tolerability and safety ([1]; 25 mg pelubiprofen tromethamine compared to 30 mg pelubiprofen, healthy subjects, single oral dose) | adverse events ([1]; treatment of the test (25 mg pelubiprofen tromethamine)) | Tmax,i (time of peak baseline-corrected COX-2 inhibition) (cyclooxygenase-2 (COX-2); Study I periods 1 and 2, all subjects N = 30, single oral 25 mg pelubiprofen tromethamine, median (minimum–maximum)) | Tmax,I (time of peak baseline-corrected COX-2 inhibition) (cyclooxygenase-2 (COX-2); Study I periods 1 and 2, without outliers (A03 and A08) N = 28, single oral 25 mg pelubiprofen tromethamine, median (minimum–maximum)) | Geometric Mean Ratio (90% CI) of AUIC (cyclooxygenase-2 (COX-2); [2]) | Geometric Mean Ratio (90% CI) of Imax (cyclooxygenase-2 (COX-2); [2]) | Geometric Mean Ratio (90% CI) of Tmax,i (cyclooxygenase-2 (COX-2); [2]) | maximum COX-2 inhibitory effect compared to the reference (cyclooxygenase-2 (COX-2); Study I, all subjects, 25 mg pelubiprofen tromethamine compared to 30 mg pelubiprofen) | COX-2 inhibitory effect compared to the reference (cyclooxygenase-2 (COX-2); Study I, excluding two outlier subjects (A03 and A08), 25 mg pelubiprofen tromethamine compared to 30 mg pelubiprofen) | Geometric Mean Ratio (90% CI) of AUIC (cyclooxygenase-2 (COX-2); [3]) | Geometric Mean Ratio (90% CI) of Imax (cyclooxygenase-2 (COX-2); [3]) | Geometric Mean Ratio (90% CI) of Tmax,I (cyclooxygenase-2 (COX-2); [3]) | Geometric Mean Ratio (90% CI) of Imax (cyclooxygenase-2 (COX-2); Study I, without outliers N = 28, 25 mg pelubiprofen tromethamine vs. 30 mg pelubiprofen, listed as pelubiprofen tromethamine) | adverse events ([1]; treatment of reference (30 mg pelubiprofen)) | time after administration until which COX-2 inhibition was maintained (cyclooxygenase-2 (COX-2); Study I, single oral 30 mg pelubiprofen) | Tmax,I (time of peak baseline-corrected COX-2 inhibition) (cyclooxygenase-2 (COX-2); human, in vivo, po, 30 mg) | Tmax,PGE2 (cyclooxygenase-2 (COX-2); human, in vivo, po, 30 mg) | Tmax,i (time of peak baseline-corrected COX-2 inhibition) (cyclooxygenase-2 (COX-2); human, in vivo, po, 30 mg)
CC(C(=O)O)c1ccc(/C=C2\CCCCC2=O)cc1 (stereo not drawn) [Pelubiprofen Tromethamine, pelubiprofen tromethamine] | outstanding tolerability and safety | one case of adverse events | 0.50 (0.00–3.50) h | 0.50 (0.17–3.50) h | 1.09 (0.94–1.27) | 0.98 (0.95–1.02) | 1.01 (0.75–1.35) | approximately 98% | approximately 98% | 1.03 (0.91–1.18) | 0.98 (0.95–1.01) | 1.00 (0.73–1.36) | approximately 0.98 | – | – | – | – | –
CC(C(=O)O)c1ccc(/C=C2\CCCCC2=O)cc1 (stereo not drawn) [Pelubiprofen, 2-[4-(oxocyclohexylidenemethyl)-phenyl] propionic acid] | – | – | – | – | – | – | – | – | – | – | – | – | – | three cases of adverse events | approximately 8 h | 0.50 (0.33–3.50) h | 0.08 (0.00–8.00) h | 0.50 (0.33–3.50) h
